Columns and labels:
HDAC4 [1] = assay type: cell-based, human; details: TAg Jurkat cells treated 1.5 hours; for HDAC activity of the purified HDAC4 complex: immunoprecipitate
Description: (§1) In addition, an increase in the overall HDAC activity of the purified complex was observed (FIG. 9A).
HDAC4 (SEQ ID NO:2) also contains a nuclear localization sequence (Hicks and Raikhel, 1995). In order to determine if the interaction with 14-3-3 blocks binding of the importin heterodimer, recombinant FLAG-tagged HDAC4 (SEQ ID NO:2) was immunoprecipitated from untreated, staurosporine-, and calyculin A-treated TAg-Jurkat cells and analyzed for binding to importin □ by Western blotting.
(§2) Cells were harvested 48 hours post-transfection. When required, cells were treated with 200 µM staurosporin (Calbiochem) or 20 nM calyculin A (Calbiochem) for 1.5 hours prior to harvesting.

HDAC5 [2] = assay type: cell-based, human; details: TAg Jurkat cells treated 1.5 hours; for HDAC5 association with HDAC3 / binding of HDAC5 to either 14-3-3 isoform: Western blot; for HDAC activity of the purified HDAC5 complex: immunoprecipitate
Experimental: as §1, §2

HDAC1 = target: T1, HDAC1 (Homo sapiens, UniProt Q13547); test: in vitro HDAC assay, release of 3H-acetate from labeled histones by immunoprecipitated FLAG-tagged HDAC1; assay type: biochemical; details: 300 nM TSA, 10 minutes prior to addition of labeled histones
T1 construct: made in house; host or cells: Sf9 insect cells (baculovirus, pVL1392)
T1 sequence (Q13547 whole entry): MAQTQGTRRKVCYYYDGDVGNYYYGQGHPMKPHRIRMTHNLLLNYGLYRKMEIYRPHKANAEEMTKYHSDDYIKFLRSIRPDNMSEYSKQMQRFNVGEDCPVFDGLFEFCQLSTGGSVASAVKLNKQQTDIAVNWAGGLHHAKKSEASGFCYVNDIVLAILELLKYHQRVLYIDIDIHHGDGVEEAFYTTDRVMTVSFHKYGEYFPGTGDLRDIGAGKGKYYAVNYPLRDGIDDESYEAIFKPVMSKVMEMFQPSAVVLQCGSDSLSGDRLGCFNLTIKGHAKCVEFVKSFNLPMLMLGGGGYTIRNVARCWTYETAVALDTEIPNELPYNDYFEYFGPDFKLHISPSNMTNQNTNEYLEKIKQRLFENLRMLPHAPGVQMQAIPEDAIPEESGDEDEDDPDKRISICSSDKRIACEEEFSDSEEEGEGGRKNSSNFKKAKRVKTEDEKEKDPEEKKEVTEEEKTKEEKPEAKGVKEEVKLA
Experimental: (§3) C. In Vitro Histone Deacetylase Activity of Class II HDACs.
(§4) FLAG-tagged HDAC1 and HDAC6 were expressed in TAg Jurkat cells and purified by immunoprecipitation using the anti-FLAG antibody. […] The proteins were used in in vitro HDAC assays with the compounds identified in the screen, using concentration of approximately 50 μM.
(§5) E. Histone isolation and substrate specificity determination. […] F. HDAC6 Mutagenesis. […] G. Cell culture and transfections. […] Cells were harvested 48 hours post-transfection. H. DNA Constructs

HDAC6 = target: T2, HDAC6 (Homo sapiens, UniProt Q9UBN7); test: in vitro HDAC assay, release of 3H-acetate from labeled histones by immunoprecipitated FLAG-tagged HDAC6; assay type: biochemical; details: 300 nM TSA, 10 minutes prior to addition of labeled histones
T2 construct: made in house; host or cells: Sf9 insect cells (baculovirus, pVL1392, Baculogold)
T2 sequence (Q9UBN7 1-1215 T994I): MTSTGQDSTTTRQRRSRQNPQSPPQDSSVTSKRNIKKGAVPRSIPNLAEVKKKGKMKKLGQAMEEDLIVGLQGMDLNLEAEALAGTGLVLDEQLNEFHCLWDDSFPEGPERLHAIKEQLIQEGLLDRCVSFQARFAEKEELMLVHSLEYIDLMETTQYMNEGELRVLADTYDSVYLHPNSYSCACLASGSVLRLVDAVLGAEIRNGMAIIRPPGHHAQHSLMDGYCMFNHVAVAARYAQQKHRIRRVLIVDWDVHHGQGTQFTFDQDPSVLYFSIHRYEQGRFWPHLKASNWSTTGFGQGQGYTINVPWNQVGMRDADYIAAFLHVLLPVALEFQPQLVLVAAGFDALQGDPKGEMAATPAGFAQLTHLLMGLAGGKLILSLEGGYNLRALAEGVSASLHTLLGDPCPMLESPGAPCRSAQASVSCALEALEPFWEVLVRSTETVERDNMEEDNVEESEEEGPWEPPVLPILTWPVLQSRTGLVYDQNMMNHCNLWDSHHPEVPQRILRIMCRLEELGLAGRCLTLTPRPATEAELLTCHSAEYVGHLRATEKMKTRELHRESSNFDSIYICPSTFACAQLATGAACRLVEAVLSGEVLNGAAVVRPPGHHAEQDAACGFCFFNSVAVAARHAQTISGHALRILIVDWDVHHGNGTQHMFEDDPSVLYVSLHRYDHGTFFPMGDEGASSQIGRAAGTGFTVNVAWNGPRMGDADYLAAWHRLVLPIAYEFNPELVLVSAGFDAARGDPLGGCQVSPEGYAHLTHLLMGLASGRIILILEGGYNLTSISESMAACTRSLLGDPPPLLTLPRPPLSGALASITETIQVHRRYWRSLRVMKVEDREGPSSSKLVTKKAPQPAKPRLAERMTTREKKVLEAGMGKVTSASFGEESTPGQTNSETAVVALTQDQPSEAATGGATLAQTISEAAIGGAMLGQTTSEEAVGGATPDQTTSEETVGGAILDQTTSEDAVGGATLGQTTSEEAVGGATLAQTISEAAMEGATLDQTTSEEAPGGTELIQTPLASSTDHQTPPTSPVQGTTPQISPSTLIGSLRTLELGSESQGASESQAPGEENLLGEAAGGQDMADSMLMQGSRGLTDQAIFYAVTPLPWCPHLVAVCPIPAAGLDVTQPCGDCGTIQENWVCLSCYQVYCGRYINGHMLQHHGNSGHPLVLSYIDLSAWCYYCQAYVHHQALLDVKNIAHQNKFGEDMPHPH
Experimental: as §3, §4, §5

HDAC4 [3] = target: HDAC4 (Homo sapiens, UniProt P56524); details: 300 nM TSA, 10 minutes prior to addition of labeled histones
Chain of HDAC4 (Homo sapiens, UniProt P56524) (P56524 whole entry A373T): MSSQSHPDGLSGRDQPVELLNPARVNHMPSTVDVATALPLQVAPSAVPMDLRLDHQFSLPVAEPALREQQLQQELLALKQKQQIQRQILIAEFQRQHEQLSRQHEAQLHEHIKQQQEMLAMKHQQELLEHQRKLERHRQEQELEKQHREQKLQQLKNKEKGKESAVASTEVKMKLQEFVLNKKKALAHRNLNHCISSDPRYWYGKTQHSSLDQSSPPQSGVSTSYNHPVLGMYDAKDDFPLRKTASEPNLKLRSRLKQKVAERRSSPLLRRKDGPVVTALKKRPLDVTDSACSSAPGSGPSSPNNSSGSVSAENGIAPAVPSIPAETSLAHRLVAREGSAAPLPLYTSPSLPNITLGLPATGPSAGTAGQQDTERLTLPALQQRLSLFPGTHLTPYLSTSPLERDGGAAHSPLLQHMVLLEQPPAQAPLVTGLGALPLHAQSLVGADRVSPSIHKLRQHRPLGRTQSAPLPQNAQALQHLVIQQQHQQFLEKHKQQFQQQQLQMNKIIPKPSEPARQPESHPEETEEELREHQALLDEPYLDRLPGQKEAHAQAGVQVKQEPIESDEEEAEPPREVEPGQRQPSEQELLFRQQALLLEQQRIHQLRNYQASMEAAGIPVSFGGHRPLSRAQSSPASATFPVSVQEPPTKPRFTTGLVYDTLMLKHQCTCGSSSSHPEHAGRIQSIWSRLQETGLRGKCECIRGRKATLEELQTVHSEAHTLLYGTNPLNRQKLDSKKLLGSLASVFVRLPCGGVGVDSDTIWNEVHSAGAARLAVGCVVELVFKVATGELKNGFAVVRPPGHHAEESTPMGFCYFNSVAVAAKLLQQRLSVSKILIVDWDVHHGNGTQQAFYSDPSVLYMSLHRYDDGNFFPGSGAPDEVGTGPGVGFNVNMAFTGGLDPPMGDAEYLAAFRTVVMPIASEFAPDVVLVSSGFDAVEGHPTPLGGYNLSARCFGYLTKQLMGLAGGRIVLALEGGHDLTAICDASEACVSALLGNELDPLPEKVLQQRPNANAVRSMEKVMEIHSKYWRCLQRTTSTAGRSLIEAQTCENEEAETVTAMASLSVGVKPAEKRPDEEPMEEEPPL
Description: (§6) The NCBI database was screened with the yeast Hda1p amino acid sequence to identify human homologs. The complete ORFs of HDAC 4 (SEQ ID NO:2), 5 (SEQ ID NO:4), and 6 (SEQ ID NO:6) were constructed as described in Methods. […] The two catalytic regions in HDAC6 (SEQ ID NO:6) are highly homologous to each other (47% identity, 64% similarity) and therefore the protein may have arisen evolutionarily from an in frame gene duplication event. […] C. In Vitro Histone Deacetylase Activity of Class II HDACs.

HDAC5 [4] = target: HDAC5 (Homo sapiens, UniProt Q9UQL6); details: 300 nM TSA, 10 minutes prior to addition of labeled histones
Chain of HDAC5 (Homo sapiens, UniProt Q9UQL6) (Q9UQL6 whole entry D593E): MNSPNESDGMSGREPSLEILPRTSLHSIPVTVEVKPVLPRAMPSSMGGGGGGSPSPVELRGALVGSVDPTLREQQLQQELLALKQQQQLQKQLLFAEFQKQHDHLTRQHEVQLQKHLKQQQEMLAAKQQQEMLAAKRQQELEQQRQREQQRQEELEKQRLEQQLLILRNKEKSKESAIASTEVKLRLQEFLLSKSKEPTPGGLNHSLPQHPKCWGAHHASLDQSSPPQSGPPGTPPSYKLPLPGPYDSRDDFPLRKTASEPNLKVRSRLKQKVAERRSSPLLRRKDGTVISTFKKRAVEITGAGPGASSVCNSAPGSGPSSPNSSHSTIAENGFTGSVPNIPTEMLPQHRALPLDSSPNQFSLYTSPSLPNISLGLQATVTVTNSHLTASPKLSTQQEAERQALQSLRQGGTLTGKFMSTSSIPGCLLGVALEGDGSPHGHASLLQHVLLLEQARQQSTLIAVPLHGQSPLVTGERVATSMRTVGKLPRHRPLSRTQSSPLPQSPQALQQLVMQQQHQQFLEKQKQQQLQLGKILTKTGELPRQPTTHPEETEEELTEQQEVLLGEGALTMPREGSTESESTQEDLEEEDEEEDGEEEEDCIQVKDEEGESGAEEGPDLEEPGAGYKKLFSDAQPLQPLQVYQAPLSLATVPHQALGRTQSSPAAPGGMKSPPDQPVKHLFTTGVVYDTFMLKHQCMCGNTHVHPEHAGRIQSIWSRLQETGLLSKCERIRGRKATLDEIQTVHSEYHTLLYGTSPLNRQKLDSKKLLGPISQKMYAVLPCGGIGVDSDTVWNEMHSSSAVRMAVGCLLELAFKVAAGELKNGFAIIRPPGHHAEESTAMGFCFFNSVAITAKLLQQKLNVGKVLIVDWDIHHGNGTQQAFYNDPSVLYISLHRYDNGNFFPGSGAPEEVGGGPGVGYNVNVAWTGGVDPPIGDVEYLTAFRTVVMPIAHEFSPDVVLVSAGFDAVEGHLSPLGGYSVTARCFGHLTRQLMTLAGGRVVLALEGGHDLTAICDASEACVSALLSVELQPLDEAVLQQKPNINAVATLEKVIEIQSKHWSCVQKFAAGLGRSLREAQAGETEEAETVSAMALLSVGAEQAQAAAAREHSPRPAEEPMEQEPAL
Description: as §6

SMILES	HDAC4 association with HDAC3 (HDAC4 [1]; Western blot)	binding of HDAC4 to either 14-3-3 isoform (HDAC4 [1]; Western blot)	HDAC activity of the purified HDAC4 complex (HDAC4 [1])	HDAC5 association with HDAC3 (HDAC5 [2])	binding of HDAC5 to either 14-3-3 isoform (HDAC5 [2])	HDAC activity of the purified HDAC5 complex (HDAC5 [2])	HDAC4 association with importin α (HDAC4 [1]; Western blot)	HDAC1 deacetylation activity in the presence of TSA (HDAC1)	HDAC6 deacetylation activity in the presence of TSA (HDAC6)	HDAC4 deacetylation activity in the presence of TSA (HDAC4 [3])	HDAC5 deacetylation activity in the presence of TSA (HDAC5 [4])
CN[C@@H]1C[C@H]2O[C@@](C)([C@@H]1OC)n1c3ccccc3c3c4c(c5c6ccccc6n2c5c31)C(=O)NC4 [staurosporine]	increase	decrease	increase	increase	decrease	increase					
COC[C@@H]([C@H](O)[C@H](O)C(=O)NCC[C@H](C)c1nc(/C=C/C[C@@H]2O[C@]3(C[C@@H](O)[C@@H]2C)O[C@H]([C@H](C[C@H](O)[C@H](C)[C@H](O)[C@H](C)/C=C(C)/C(C)=C/C=C/C(C)=C\C#N)OC)[C@H](OP(=O)(O)O)C3(C)C)co1)N(C)C [calyculin A]	loss of interaction	increase	dramatic reduction	loss of interaction	increase	dramatic reduction	fails to associate				
CC(/C=C/C(=O)NO)=C\[C@@H](C)C(=O)c1ccc(N(C)C)cc1 [TSA, trichostatin A]								greatly reduced	greatly reduced	greatly reduced	greatly reduced

Source: patent US8076116B2, “Nucleic acids encoding class II human histone deacetylases, and uses related thereto” (priority 2000, dated 2011)
